This passage reports Activity results from ChEMBL document CHEMBL1137877, “Synthesis and evaluation of 4-(1-aminoalkyl)-N-(4-pyridyl)cyclohexanecarboxamides as Rho kinase inhibitors and neurite outgrowth promoters” (2004).

This experiment relates to NG108-15. In words: Mean percent neurite outgrowth (cells with neurites longer than cell body/total cells) was determined in NG108-15 cells after 4 hr incubation at 35 uM. The experiment is classed as functional, Mus musculus x Rattus norvegicus.
In turn, `C[C@@H](N)[C@H]1CC[C@H](C(=O)Nc2ccncc2)CC1.Cl.Cl` registered an Activity of 82%. The compound `C[C@@H](N)C1CCC(C(=O)Nc2ccncc2)CC1.Cl.Cl` (stereo partly specified) showed an Activity of 68%. The figure for `CCCCCCCC[C@@H](N)C1CCC(C(=O)Nc2ccncc2)CC1.Cl.Cl` (stereo partly specified) is 0%; for `C[C@H](N)C1CCC(C(=O)Nc2ccncc2)CC1.Cl.Cl` (stereo partly specified) it is 70%. As for `CCC[C@H](N)C1CCC(C(=O)Nc2ccncc2)CC1.Cl.Cl` (stereo partly specified), the figure is 23%; as for `CCC[C@@H](N)C1CCC(C(=O)Nc2ccncc2)CC1.Cl.Cl` (single isomer, unassigned; (+)), 48%.
